From ChEMBL document CHEMBL1862790, “Optimisation of fenarimol series for the treatment of Chagas disease”
Where “and” joins values, the source holds several entries; their conditions need not be identical. Identical values can stand only once.

Experiments:
Trypanosoma cruzi [1] = experiment: microbe, parasite or virus in culture; type: functional, Tulahuen LacZ, Clone C4
[2] = DNDI: Cytotoxicity against L-6 rat myoblasts from skeletal muscle cells; settings: L6 rat skeletal muscle myoblast cells
Trypanosoma cruzi [3] = experiment: microbe, parasite or virus in culture; type: functional, organism-based, Tulahuen LacZ, Clone C4
[4] = Trypanosoma cruzi, Tulahuen LacZ, Clone C4

Row | SMILES | IC90 (Trypanosoma cruzi [1]; [4]) [nM] | IC50 (Trypanosoma cruzi [3]; [4]) [nM] | IC90 (Trypanosoma cruzi [1]) | IC50 (Trypanosoma cruzi [3]) | IC50 ([2]; IC50) [nM] | IC50 [2] [nM]
1 | CC(C)(C)OC(=O)NC1CCN(C(c2ccc(C#N)cc2)c2cccnc2)CC1 (stereo unspecified) | 100 | 26 | – | – | > 100000 | –
2 | CC(C)S(=O)(=O)NC1CCN(C(c2ccc(C(F)(F)F)cc2)c2cnccn2)CC1 (stereo unspecified) | 940 | 560 | – | – | > 100000 | –
3 | CC(C)c1ccc(NC(=O)N2CCN(C(c3ccc(Cl)cc3)c3cncnc3)CC2)cc1 (stereo unspecified) | 36 | 11 | – | – | 36000 | –
4 | CC(C)CC(=O)NC1CCN(C(c2cnccn2)c2ccc(F)cc2F)CC1 (stereo unspecified) | > 1000 | > 1000 | – | – | > 100000 | –
5 | OC(c1ccc(F)cc1)(c1cncnc1)c1ccccc1Cl (stereo unspecified) [NUARIMOL] | 19500 | 1140 | – | – | – | > 100000
6 | OC(c1cccnc1)(c1ccccc1Cl)c1ccccc1C(F)(F)F (stereo unspecified) | 724 | 297 | – | – | – | > 100000
7 | O=C(c1cscn1)N1CCC(NC(c2ccc(C(F)(F)F)cc2)c2cccnc2)CC1 (stereo unspecified) | 833 | 218 | – | – | > 100000 | –
8 | CCC(=O)N1CCN(C(c2ccc(Cl)cc2)c2cncnc2)CC1 (stereo unspecified) | 4830 | 850 | – | – | > 100000 | –
9 | Cc1nc(C(=O)NC2CCN(C(c3ccc(C#N)cc3)c3cccnc3)CC2)co1 (stereo unspecified) | 272 | 114 | – | – | > 100000 | –
10 | CC(C)Oc1ccc(C(c2cccnc2)N2CCC(NC(=O)OC(C)(C)C)CC2)cc1 (stereo unspecified) | 80 | 25 | – | – | 56000 | –
11 | CC(C)Oc1ccc(C(c2cccnc2)N2CCC(NS(C)(=O)=O)CC2)cc1 (stereo unspecified) | 320 | 110 | – | – | > 100000 | –
12 | Cc1nc(N2CCC(NC(c3cccnc3)c3ccc(Cl)cc3F)CC2)no1 (stereo unspecified) | 140 | 64 | – | – | > 100000 | –
13 | CNC1=C(c2cccc(C(F)(F)F)c2)C(=O)C(c2ccccc2)O1 (stereo unspecified) [FLURTAMONE] | – | 55500 | – | – | – | 82800
14 | CC(C)C(=O)N1CCN(C(c2ccc(Cl)cc2)c2cncnc2)CC1 (stereo unspecified) | – | – | > 1000 nM | 680 nM | – | –
15 | O=C(C1CC1)N1CCC(NC(c2ccc(Cl)cc2)c2cccnc2)CC1 (stereo unspecified) | – | – | – | 110 nM | – | –
16 | CC(C)c1ccc(C(O)(c2ccc(C(F)(F)F)cc2)c2cccnc2)cc1 (stereo unspecified) | 7 | 2 | – | – | – | –

Row | SMILES | IC90 (Trypanosoma cruzi [1]; [4]) [nM] | IC50 (Trypanosoma cruzi [3]; [4]) [nM] | IC90 (Trypanosoma cruzi [1]) | IC50 (Trypanosoma cruzi [3]) | IC50 ([2]; IC50) [nM] | IC50 [2] [nM]
17 | CS(=O)(=O)N1CCC(CNC(c2ccc(C(F)(F)F)cc2)c2cnccn2)CC1 (stereo unspecified) | – | – | 910 nM | 360 nM | – | –
18 | OC(c1ccc(Cl)cc1)(c1cccnc1)c1cccc(F)c1 (stereo unspecified) | 330 | 100 | – | – | – | –
19 | CON(C)C(=O)Nc1ccc(Br)cc1 [METOBROMURON] | – | 71800 | – | – | – | > 100000
20 | N#Cc1cccc(OC2CCN(C(c3ccc(C(F)(F)F)cc3)c3cccnc3)CC2)c1 (stereo unspecified) | – | 7.5 | 12.5 nM and 29 nM | 8.25 nM | – | –
21 | O=C(C1CC1)N1CCC(NC(c2ccc(C(F)(F)F)cc2)c2cnccn2)CC1 (stereo unspecified) | – | – | > 1000 nM | 640 nM | – | –
22 | Oc1cc(Cl)ccc1Oc1ccc(Cl)cc1Cl [TRICLOSAN] | – | 53000 | – | – | – | 82200
23 | O=[N+]([O-])c1ccc(O/N=C/c2cc(Br)c(O)c(Br)c2)c([N+](=O)[O-])c1 | – | 23900 | – | – | – | 83600
24 | OC(c1ccc(Cl)cc1)(c1cccnc1)c1ccc(Br)cc1F (stereo unspecified) | 120 | 27 | – | – | – | –
25 | CC(Oc1ccc(Cl)cc1Cl)C(=O)O (stereo not drawn) [RAC-DICHLORPROP] | – | 74000 | – | – | – | > 100000
26 | CC(Oc1ccc(Oc2nc3ccc(Cl)cc3o2)cc1)C(=O)O (stereo unspecified) [FENOXAPROP] | – | > 100000 | – | – | – | > 100000
27 | Clc1ccc(C(c2ccc(Cl)cc2)c2cccnc2)cc1 | 1600 | 80 | – | – | – | –
28 | CC1(C)CC(=O)C(C(=O)c2ccc(Cl)cc2Cl)C(=O)C1 | – | 58500 | – | – | 76500 | –
29 | CS(=O)(=O)N1CCN(C(c2cccnc2)c2ccc(Cl)cc2F)CC1 (stereo unspecified) | – | – | 380 nM and 167 nM | 85 nM and 45.3 nM | – | –
30 | CC(C)Oc1ccccc1C(O)(c1ccc(Cl)cc1)c1cccnc1 (stereo unspecified) | 820 | 446 | – | – | – | –
31 | OC(c1ccc(Cl)cc1)(c1cncnc1)c1ccccc1Cl (stereo unspecified) [FENARIMOL] | 560 | 250 | – | – | – | –

Further lines, with some results ahead:

Row | IC90 (Trypanosoma cruzi [1]; [4]) [nM] | IC50 (Trypanosoma cruzi [3]; [4]) [nM] | IC90 (Trypanosoma cruzi [1]) | IC50 (Trypanosoma cruzi [3]) | SMILES | IC50 ([2]; IC50) [nM] | IC50 [2] [nM]
32 | 780 | 310 | – | – | O=S(=O)(Cc1ccccc1)NC1CCN(C(c2ccc(C(F)(F)F)cc2)c2cnccn2)CC1 (stereo unspecified) | 54900 | –
33 | 820 | 378 | – | – | O=C1CCCN1CCCNC(c1ccc(Cl)cc1)c1cccnc1 (stereo unspecified) | > 100000 | –
34 | 360 | 190 | – | – | CCOC(=O)N1CCN(C(c2ccc(Cl)cc2)c2cncnc2)CC1 (stereo unspecified) | > 100000 | –
35 | 140 | 42 | – | – | Cc1ccncc1C(O)(c1ccc(Cl)cc1)c1ccc(C(F)(F)F)cc1 (stereo unspecified) | 56500 | –
36 | 930 | 550 | – | – | O=C(NC1CCN(C(c2cnccn2)c2ccc(F)cc2F)CC1)c1ccccc1 (stereo unspecified) | > 100000 | –
37 | 11 | 6 | – | – | FC(F)(F)c1ccc(N2CCC(NC(c3cccnc3)c3cnn(Cc4ccccc4)c3)CC2)cc1 (stereo unspecified) | 51600 | –
38 | 88 | 34 | – | – | Fc1cnc(N2CCC(NC(c3ccc(Cl)cc3)c3cccnc3)CC2)nc1 (stereo unspecified) | 58200 | –
39 | – | > 1000 | – | – | CON=C(Cc1ccccc1C(=O)O)c1ccc(Cl)cc1 | > 100000 | –
40 | 356 | 24.5 | – | – | NC(=O)c1cccc(C(O)(c2cccnc2)c2ccc(Cl)cc2F)c1 (stereo unspecified) | > 100000 | –
41 | 60000 | 393 | – | – | COc1ccc(C(O)(c2cncnc2)c2ccccc2Cl)cc1 (stereo unspecified) | 70900 | –
42 | 10000 | 7820 | – | – | OC(c1cccnc1)(c1cncnc1)c1ccccc1Cl (stereo unspecified) | > 100000 | –
43 | > 100 | 71.5 | – | – | NC(=O)c1cccc(N2CCC(NC(c3cccnc3)c3ccc(Cl)cc3F)CC2)c1 (stereo unspecified) | > 100000 | –
44 | 22 | 7.3 | – | – | COc1ccc(N2CCC(NC(c3cccnc3)c3ccc(Cl)cc3F)CC2)cc1F (stereo unspecified) | 47900 | –
45 | 790 | 75 | – | – | O=C(NC1CCN(C(c2ccc(Cl)cc2)c2cncnc2)CC1)c1ccccc1 (stereo unspecified) | 90800 | –
46 | > 1000 | > 1000 | – | – | OC(c1cccnc1)c1ccc(Cl)cc1F (stereo unspecified) | > 100000 | –
47 | – | 1060 | – | – | OC(c1cncnc1)(c1ccccc1Cl)c1ccccc1Cl | > 100000 | –
48 | – | 641 | – | – | OC(c1ccc(F)cc1)(c1ccc(Cl)cc1)c1cncnc1 (stereo unspecified) | > 100000 | –
49 | – | > 1000 | – | – | CON=C(c1ccc(Cl)cc1)C1(c2ccccc2C(=O)O)CC1 | > 100000 | –
50 | – | 462 | – | – | OC(c1ccccc1)(c1ccc(Cl)cc1)c1cncnc1 (stereo unspecified) | > 100000 | –
51 | – | > 1000 | – | – | CON=C(Cc1ccccc1)c1ccc(OC)cc1 | > 100000 | –
52 | – | > 1000 | – | – | CON=C(Cc1ccc(OC)cc1)c1ccc(OC)c(OC)c1OC | 92300 | –
53 | – | > 1000 | – | – | OC(Cc1ccc(Cl)nc1)c1ccc(Cl)cc1 (stereo unspecified) | > 100000 | –
54 | – | 14500 | – | – | [O-][n+]1cncc(C(O)(c2ccc(Cl)cc2)c2ccccc2Cl)c1 (stereo unspecified) | > 100000 | –
55 | – | 67500 | – | – | C#CCOC(=O)[C@@H](C)Oc1ccc(Oc2ncc(Cl)cc2F)cc1 [CLODINAFOP PROPARGYL] | > 100000 | –
56 | – | > 1000 | – | – | CON=C(Cc1ccccc1)c1ccc(F)cc1 | – | –
57 | 10000 | 90 | – | – | COC(c1ccc(Cl)cc1)(c1cccnc1)c1ccccc1Cl (stereo unspecified) | – | –
58 | – | 77 | – | – | OC(c1ccc(Cl)cc1)(c1cccnc1)c1ccc(Cl)s1 (stereo unspecified) | 50000 | –
